Laboratory results published in patent US11746109B2, “Crystalline forms of 2-[(2S)-1-azabicyclo[2.2.2]oct-2-yl]-6-(3-methyl-1H-pyrazol-4-yl)thieno[3,2-d]pyrimidin-4(3H)-one hemihydrate” (TAKEDA PHARMACEUTICAL COMPANY LIMITED, priority 2016, dated 2023).

Tests used:
Format in all cases: physicochemical
[1] = Estimated solubility at 55° C. in recrystallization solvents; details: organic solvent or mixture, thermodynamic from solid
Method: Recrystallization of Compound 1 Crystalline Form A was investigated in various solvent conditions. […] One of water, heptane or IPE was added as an anti-solvent to maintain the saturation state. Recrystallization in heptane yielded a sufficient amount of solids for analysis after gradual cooling. […] Crystals obtained from THF, trifluoroethanol, THF/heptane, chloroform/heptane, chloroform/IPE and trifluoroethanol/IPE were characterized as solvates by XRPD and TGA/DSC analysis. Crystals obtained from all other solvents were confirmed to be Compound 1 Crystalline Form A based on XRPD analysis.

[2] = Chemical and optical stability of crystalline forms on storage
[3] = Solubility in water/DMSO at 60° C.; details: for solubility / solubility at 24 h: Water/DMSO at 60° C.; for solubility: hemihydrate; for solubility at 24 h: water/DMSO, 60 °C, organic solvent or mixture, thermodynamic from solid
Method: A solution of DMSO/water with known water content was added to a glass vial and heated to 60° C. Crystals of Compound 1 Crystalline Form I or Compound 1 Crystalline Form A were added to the vial until a suspension was obtained. The suspension was stirred via magnetic stirring and incubated for 24 hrs at 60° C. After incubation, the suspension was filtered at 60° C. 10 μL of the filtrate was sampled and diluted with 990 μL of acetonitrile/water (1/1, v/v). Sample concentration of Compound 1 was determined by HPLC. […] The experimental solubility results are summarized below in Tables 5 and 6.

[4] = Hygroscopicity of crystalline forms
[5] = Solubility in 200 mM phosphate buffer (pH 6.8); details: for solubility at 20 h: phosphate buffer, pH 6.8, aqueous buffer, thermodynamic from solid; for solubility: 20 hrs, hemihydrate
Method: About 2 mg of Compound 1 Crystalline Form A made in example 2 or Compound 1 Crystalline Form I made in example 3-2 and 2 mL of 200 mM phosphate buffer (pH 6.8) were added into a glass test tube. The test tube was shaken vigorously and incubated at 10° C., 20° C., 30° C. or 40° C. for 20 hrs. After the incubation, the suspension was centrifuged and the supernatant was filtered through a 0.22 μm pore membrane filter. The filtrate solutions were diluted 2-fold with 50 mM sodium perchlorate buffer (pH 2.5)/acetonitrile (1/1, v/v). Concentration was determined by HPLC.

[6] = 60° C./75% relative humidity (open) for at least eight weeks
[7] = 80° C. (closed) for at least eight weeks

Cc1[nH]ncc1-c1cc2nc([C@@H]3CC4CCN3CC4)[nH]c(=O)c2s1 [Compound 1 Crystalline Form A, 2-[(2S)-1-azabicyclo[2.2.2]oct-2-yl]-6-(3-methyl-1H-pyrazol-4-yl)thieno[3,2-d]pyrimidin-4(3H)-one hemihydrate]
solubility ([1]; solvent Acetone): < 2 mg/mL | solubility ([1]; solvent Acetonitrile): < 2 mg/mL | solubility ([1]; solvent Chloroform): 2.8 mg/mL | solubility ([1]; solvent Ethanol): 10.5 mg/mL | solubility ([1]; solvent Ethyl acetate): < 2 mg/mL | solubility ([1]; solvent Formamide): 10 mg/mL | solubility ([1]; solvent IPA): 6.7 mg/mL | solubility ([1]; solvent MEK): 2.9 mg/mL | solubility ([1]; solvent Methanol): 33.3 mg/mL | solubility ([1]; solvent THF): 9.1 mg/mL | solubility ([1]; solvent Toluene): < 2 mg/mL | solubility ([1]; solvent Trifluoroethanol): > 100 mg/mL | Chemical and optical stability [2, 6]: chemically and optically stable | Chemical and optical stability [2, 7]: chemically and optically stable | solubility ([3]; 0 % water by volume): 153.8 mg/mL | solubility ([3]; 6 % water by volume): 73.4 mg/mL | solubility at 24 h ([3]; 8.5 % water by volume): 51 mg/mL | solubility at 24 h ([3]; 8.7 % water by volume): 44 mg/mL | solubility at 24 h ([3]; 9.8 % water by volume): 38.5 mg/mL | solubility at 24 h ([3]; 10.7 % water by volume): 32.1 mg/mL | solubility at 24 h ([3]; 11.3 % water by volume): 28.6 mg/mL | solubility at 24 h ([3]; 11.8 % water by volume): 25.7 mg/mL | Hygroscopicity ([4]; at 25° C.): not hygroscopic | Hygroscopicity ([4]; at 40° C.): not hygroscopic | solubility at 20 h ([5]; 10 °C): 0.102 mg/mL | solubility at 20 h ([5]; 20 °C): 0.104 mg/mL | solubility at 20 h ([5]; 30 °C): 0.115 mg/mL | solubility at 20 h ([5]; 40 °C): 0.136 mg/mL

Cc1[nH]ncc1-c1cc2nc([C@@H]3CC4CCN3CC4)[nH]c(=O)c2s1 [Compound 1 Crystalline Form I, 2-[(2S)-1-azabicyclo[2.2.2]oct-2-yl]-6-(3-methyl-1H-pyrazol-4-yl)thieno[3,2-d]pyrimidin-4(3H)-one hemihydrate]
Chemical and optical stability [2, 6]: chemically and optically stable | Chemical and optical stability [2, 7]: chemically and optically stable | Solubility in water/DMSO relative to Compound 1 Crystalline Form A ([3]; at 60° C. (FIG. 7)): lower | solubility at 24 h ([3]; 0 % water by volume): 134 mg/mL | solubility at 24 h ([3]; 3 % water by volume): 108 mg/mL | solubility at 24 h ([3]; 4 % water by volume): 92.2 mg/mL | solubility at 24 h ([3]; 4.5 % water by volume): 74.8 mg/mL | solubility at 24 h ([3]; 6 % water by volume): 65.8 mg/mL | solubility at 24 h ([3]; 8 % water by volume): 34.8 mg/mL | Hygroscopicity ([4]; at 25° C.): not hygroscopic | Hygroscopicity ([4]; at 40° C.): not hygroscopic | solubility ([5]; 10 °C): 0.063 mg/mL | solubility ([5]; 20 °C): 0.071 mg/mL | solubility ([5]; 30 °C): 0.08 mg/mL | solubility ([5]; 40 °C): 0.099 mg/mL
